Like-named read-outs stand apart in the source and are kept apart here. Values belong to the molecule of their own block, whether it stands above or below them.
Columns and labels:
[1] = target: T1, GST-cGB-PDE5 fusion protein (cGMP binding sites of human PDE5A) (Homo sapiens, UniProt O76074); test: cGMP binding assay with GST-cGB-PDE5 fusion protein; conditions: for competition with cGMP binding to GST-cGB-PDE5 at high concentration: compound 100 μM, cGMP 2 μM
T1 construct: made in house; host or cells: E. coli BL21 (DE3)
Experimental: 5′-3′, Inc. kits for total RNA followed by oligo (dT) column purification of mRNA are used with HT-29 cells. […] It is then cloned into pGEX-5X-3 glutathione-S-transferase (GST) fusion vector (Pharmacia Biotech )with tac promoter, and EcoRI and XhoI cut sites. The fusion vector is then transfected into E. Coli BL21 (DE3) bacteria (Invitrogen). The transfected BL21 bacteria is grown to log phase, and then IPTG is added as an inducer. The induction is carried at 20° C. for 24 hrs. The bacteria are harvested and lysed. The soluble cell lysate is incubated with GSH conjugated Sepharose 4B (GSH-Sepharose 4B). The GST-cGB-PDE5 fusion protein can bind to the GSH-Sepharose beads, and the other proteins are washed off from beads with excessive cold PBS.
Then, the mixture is transferred to Brandel MB-24 cell harvester with GF/B as the filter membrane followed by 2 washes with 10 mL of cold 5 mM potassium buffer(pH 6.8). The membranes are then cut out and transferred to scintillation vials followed by the addition of 1 mL of H2O and 6 mL of Ready Safe™ liquid scintillation cocktail to each vial. The vials are counted on a Beckman LS 6500 scintillation counter.
The quenching by filter membrane or other debris are also calibrated.

[2] = acute and seven-dose toxicity in dogs (capsules); format: in vivo
Experimental: Therefore, these dogs were subsequently administered seven consecutive doses of 1000 mg/kg/day.

PDE5 = target: T2, PDE5 (Homo sapiens, UniProt O76074); test: cGMP PDE inhibition, PDE5; format: biochemical
T2 construct: partially purified cGMP-specific PDE isolated from HT-29 cells; endogenous in cells; host or cells: HT-29

[3] = tested on: TNF-α secreted by TPA-induced U937 cells; test: TNF-α immunoassay on U937 cell culture media; format: cell-based; conditions: cell culture media (FIG. 12)
Experimental: One function of macrophages is to modulate the activity of other inflammatory cells through various cytokine molecules.
TNF-α levels in the cell culture media were determined by using the TNF-α Immunoassay from R&D Systems (Cat. # DTA50) according to the manufacturer's protocol.

[4] = 91-day oral study in dogs; format: in vivo; conditions: 91 days, 150 and 300 mg/kg/day
28-day study in rats = format: in vivo; conditions: 28 days
Experimental: A 28-day study in rats was also carried out at 0, 50, 500 and 2000 mg/kg/day.

[5] = long-term safety assessment study in rats, 91 days; format: in vivo; conditions: males and females at 200 and 500 mg/kg/day
[6] = single, escalating dose human clinical safety study; format: in vivo; conditions: oral, 50 mg BID, 100 mg BID, 200 mg BID and 400 mg BED
[7] = seven-day dose-range finding study in rats; format: in vivo; conditions: seven days, 2000 mg/kg/day
[8] = acute toxicity study in rats; format: in vivo
U937 cells = test: apoptosis induction of U937 cells (active caspase 3 indirect immunofluorescence); format: cell-based; conditions: 1 μM
Experimental: U937 cells (from ATCC Rockville, Md.) were grown in RPMI media supplemented with 5% FCS, glutamine, antibiotic/antimycotic and sodium pyruvate. Total RNA was isolated from two U937 cultures, one treated with 5 nM TPA for 48 hours and one grown in normal media as listed above, using the Rouche High Pure RNA Isolation Kit (cat#1 828 665) as per manufacturers protocol. cDNA was then synthesized from the total RNA using GibcoBRL SuperscriptII (Cat #18064-022) reverse transcriptase as per manufacturers protocol. The resulting cDNA was used as a template for RT-PCR reactions using primer sets specific for PDE2 (forward: […], reverse: […]) or PDE5 (forward: […], reverse: […]). mRNA for PDE2 and 5 were both present in the untreated U937 cells. Upon treatment with TPA, the relative amounts of PDE2 mRNA increased 5 fold. Therefore, U937 cells treated with TPA and driven to differentiate into an activated macrophage like state have elevated levels of PDE2 mRNA (see FIG. 1).
The presence of PDE2 and PDE5 protein within U937 cells was confirmed by indirect immunofluorescence (IIF). U937 cells were cultured as above. Two U937 cultures, one grown in the presence of 5 nM TPA for 48 hours and one grown in normal media were processed. […]
The level of apoptosis in U937 cells was quantified by scoring 500 consecutive cells for the presence of active caspase 3. […]

competition with cGMP in binding to cGMP binding sites of GST-cGB-PDE5 ([1]; 3H-cGMP 2 μM): did not compete
SMILES: CCCCOC1C2OP(=O)(O)OCC2OC1n1cnc2c(N)ncnc21 (stereo not shown) [2′-O-butyl-cAMP]

competition with cGMP in binding to cGMP binding sites of GST-cGB-PDE5 ([1]; 3H-cGMP 2 μM): did not compete
SMILES: CCCCOC1C2OP(=O)(O)OCC2OC1n1cnc2c(=O)[nH]c(N)nc21 (stereo not shown) [2′-O-butyl-cGMP]

SMILES: CC1=C(CC(=O)NCc2ccccc2)c2cc(F)ccc2/C1=C\c1ccncc1.Cl [Compound 38, (Z)-5-Fluoro-2-Methyl-(4-Pyridylidene)-3-(N-Benzyl)Indenylacetamide Hydrochloride]
oral LD50 [2]: greater than 1000 mg/kg
IC50 (PDE5): 4 µM
level of TNF-α secreted [3]: significantly reduced
competition with cGMP in binding to cGMP binding sites of GST-cGB-PDE5 ([1]; 3H-cGMP 2 μM): does not bind to the cGMP-binding site
feces [4]: Orange discoloration of the feces
body weight changes, ophthalmoscopic examinations, hematological and blood chemistry values and urinalysis (28-day study in rats): unremarkable
liver and thyroid increases at the lower doses (28-day study in rats; lower doses): not statistically significant
liver and thyroid/parathyroid weights [5]: dose-related trend to increased liver and thyroid/parathyroid weights
side effects [6]: no significant side effects at any dose
effects [7]: labored breathing and/or abnormal respiratory sounds, decreased weights gains and food consumption in male rats, and increased liver weights in female rats
intraperitoneal LD50 ([8]; intraperitoneal): greater than 1000 mg/kg
oral LD50 ([8]; oral): > 2000 mg/kg
necropsy finding ([8]; single dose 1000 mg/kg intraperitoneally): mesenteric adhesions seen in some animals
apoptosis as reflected by the presence of active caspase 3 (FIG. 8) (U937 cells): undergoing apoptosis

SMILES: Nc1ncnc2c1ncn2[C@@H]1O[C@@H]2COP(=O)(O)O[C@H]2[C@H]1O [Cyclic AMP]
competition with cGMP in binding to cGMP binding sites of GST-cGB-PDE5 [1]: did not compete

competition with cGMP binding to GST-cGB-PDE5 at high concentration [1]: can partially compete
SMILES: O=c1[nH]cnc2c1ncn2[C@@H]1O[C@@H]2COP(=O)(O)O[C@H]2[C@H]1O [Cyclic IMP]

competition with cGMP binding to GST-cGB-PDE5 at high concentration [1]: can partially compete
SMILES: Nc1nc2c(nc(Br)n2[C@@H]2O[C@@H]3COP(=O)(O)O[C@H]3[C@H]2O)c(=O)[nH]1 [Example 8-bromo-cGMP, 8-bromo-cGMP]

SMILES: O=C([O-])C1CCN(c2nc(NCc3ccc4c(c3)OCO4)c3cc(Cl)ccc3n2)CC1.[Na+] [Example E4021]
competition with cGMP in binding to cGMP binding sites of GST-cGB-PDE5 ([1]; 3H-cGMP 2 μM): None of the PDE5 inhibitors showed any competition

SMILES: CSc1ccc(/C=C2/C(C)=C(CC(=O)O)c3cc(F)ccc32)cc1 [Sulindac sulfide, sulindac sulfide]
competition with cGMP in binding to cGMP binding sites of GST-cGB-PDE5 ([1]; 3H-cGMP 2 μM): None of the PDE5 inhibitors showed any competition

competition with cGMP in binding to cGMP binding sites of GST-cGB-PDE5 ([1]; 3H-cGMP 2 μM): did not compete
SMILES: Nc1ccn([C@@H]2O[C@@H]3COP(=O)(O)O[C@H]3[C@H]2O)c(=O)n1 [cCMP, cyclic CMP]

competition with cGMP in binding to cGMP binding sites of GST-cGB-PDE5 ([1]; 3H-cGMP 2 μM): did not compete
SMILES: O=c1ccn([C@@H]2O[C@@H]3COP(=O)(O)O[C@H]3[C@H]2O)c(=O)[nH]1 [cUMP, cyclic UMP]

SMILES: CC1=C(CC(=O)O)c2cc(F)ccc2/C1=C\c1ccc(S(C)(=O)=O)cc1 [exisulind]
competition with cGMP in binding to cGMP binding sites of GST-cGB-PDE5 ([1]; 3H-cGMP 2 μM): None of the PDE5 inhibitors showed any competition

SMILES: CCCOc1ccccc1-c1nc2nn[nH]c2c(=O)[nH]1 [zaprinast]
competition with cGMP in binding to cGMP binding sites of GST-cGB-PDE5 ([1]; 3H-cGMP 2 μM): None of the PDE5 inhibitors showed any competition

Source: patent publication US20060252762A1, “Methods for treatment of multiple sclerosis” (priority 2001, published 2006)
